The source of these data is patent US10508113B2, “Inhibitors of tyrosine kinase 2 mediated signaling” (AbbVie Inc., priority 2018, dated 2019).

In assay [1] the target is T1, Jak1 (Homo sapiens, UniProt P23458).
T1 construct: endogenous in cells; host or cells: TF1 cells
Briefly: Jak1 (PSTAT3 TF1) alpha screen assay: inhibition of IL-6 induced phosphorylation of STAT3 in TF1 cells. In kind it is cell-based. The settings on record: calculated from tabulated EC50 data (Jak1 / Tyk2). On the procedure: 2. JAK1 (PSTAT3 TF1) ALPHA SCREEN ASSAY
IL-6 is known to transduce its signal through IL-6 receptor via Jak1. Activity against Jak1 was therefore measured by determining inhibition of IL-6 induced phosphorylation of STAT3 in TF1 cells.
Cell Type: TF1 Cells; Culture Medium: RPMI 1640 Medium, 2mM L-glutamine, 10% heat- inactivated fetal bovine serum (FBS), 10 mM hydroxyethyl piperazineethanesulfonic acid (HEPES), and 2 ng/mL recombinant human interleukin-6(IL-6); Assay Medium: Dulbecco's Modified Eagle Medium (DMEM) medium with 2 mM L-glutamine, 10 mM HEPES, 100 U/mL penicillin/streptomycin, 1.5 g/L sodium bicarbonate, 4.5 g/L glucose, 1 mM sodium pyruvate, 10% heat-inactivated FBS; Compound Preparation: Compounds are dissolved in 100% dimethyl sulfoxide (DMSO).
Day One—Starve Cells: 4 Flasks for one 384 plate (spin down @1000 rpm for 10 minutes and add RPMI 1640 Medium, 2 mM L-glutamine, 10% FBS, 10 mM HEPES with no IL-6 -incubate overnight).
(§1) Day Two—Compound Dilutions:
i. Manual 8-point 1:5 dilution curve: 5 mM top concentration dispensed in row A of a
Corning 96-well polypropylene plate, columns 2-12. DMSO dispensed in position A01 for low and high controls. Compounds were serially diluted 1:5 by adding 10 μL stock to […] DMSO down the plate.
ii. Media dilution of compounds: Serially diluted compounds were further diluted 1:12.5 in assay medium by adding 4 μL compound to 46 μL assay medium in a Corning 96-well polypropylene plate.
384 Alpha Screen Plate Set up: Transfer 2.5 μL/well of compound solution from assay media dilution plate. Replicates were vertical, one column of the 96-well dilution plate goes into one column on the 384-well plate twice. Plated 1×10^5 starved cells/well in 5 μL. Washed cells in 10 mL DMEM medium after spinning down. Brought cell pellet up in assay media. Counted live cells. Multiplied by dilution factor and 10,000 (constant) to get the concentration of viable cells. Multiplied by volume of assay media used to bring up cells to get the total number of live cells. Divided by 20,000,000 cells/mL to get the volume needed. Cells were plated at 5 μL/well in gray Alpha Screen 384-well plate. Spinned the plate to bring the contents to the bottom of the wells at 300 rpm for 60 seconds. Top final compound concentration: 25 μM. Sealed with adhesive and tapped gently. Incubated plate at 37° C. for 30 minutes. c. IL-6 Stimulation (pSTAT3)
Once cells were in incubator, immediately prepared working stock of IL-6 (100 ng/mL final concentration). IL-6 stock=10 μg/mL of IL-6 in phosphate buffered saline with 0.1% bovine serum albumin. Diluted 1:25 by adding 60 μL stock IL-6 to 1440 μL assay media. Added 2.5 μL IL-6 to each well. Spinned plate at 300 rpm briefly; tapped the plate gently before covering with an adhesive seal. Incubated plate at 37° C. for 30 minutes.
Added 2.5 μL of 5X Lysis buffer to each well. Incubated at room temperature on orbital shaker for 10 minutes.
e. Protein (A) Acceptor Beads Preparation:
Phosphorylated Signal Transducer and Activator of Transcription 3 (pSTAT3) was quantified using the PerkinElmer SureFire pSTAT3 (Tyrosine 705) Assay. Calculated total volume needed (wells×[…]×25%). Divided total volume by 5 to get volume of activation buffer. Subtracted volume of activation buffer from total volume and divide by 40 to get volume of acceptor beads (add last). Total volume−acceptor bead volume−activation buffer=volume of reaction buffer. Added 15 μL to each well and covered with foil. Shaked on orbital shaker for 2 hours at 500 rpm.
(§2) f. Streptavidin Donor Beads Preparation:
Calculated total volume needed (wells×[…]×25%). Divided total volume by 20 to get volume of donor beads (add last). Subtracted volume of donor beads from total volume to get volume of dilution buffer. Added 6 μL to each well and covered with foil. Shaked on orbital shaker overnight at 500 rpm.
Read plate on a Perkin Elmer Envision. […]

For assay [2], the target named is T2, Jak2 (Homo sapiens, UniProt O60674).
T2 construct: Cell Type: UT7 cells engineered to express the erythropoietin (EPO) receptor; endogenous in cells; host or cells: UT7 cells engineered to express the EPO receptor
T2 sequence (O60674 whole entry): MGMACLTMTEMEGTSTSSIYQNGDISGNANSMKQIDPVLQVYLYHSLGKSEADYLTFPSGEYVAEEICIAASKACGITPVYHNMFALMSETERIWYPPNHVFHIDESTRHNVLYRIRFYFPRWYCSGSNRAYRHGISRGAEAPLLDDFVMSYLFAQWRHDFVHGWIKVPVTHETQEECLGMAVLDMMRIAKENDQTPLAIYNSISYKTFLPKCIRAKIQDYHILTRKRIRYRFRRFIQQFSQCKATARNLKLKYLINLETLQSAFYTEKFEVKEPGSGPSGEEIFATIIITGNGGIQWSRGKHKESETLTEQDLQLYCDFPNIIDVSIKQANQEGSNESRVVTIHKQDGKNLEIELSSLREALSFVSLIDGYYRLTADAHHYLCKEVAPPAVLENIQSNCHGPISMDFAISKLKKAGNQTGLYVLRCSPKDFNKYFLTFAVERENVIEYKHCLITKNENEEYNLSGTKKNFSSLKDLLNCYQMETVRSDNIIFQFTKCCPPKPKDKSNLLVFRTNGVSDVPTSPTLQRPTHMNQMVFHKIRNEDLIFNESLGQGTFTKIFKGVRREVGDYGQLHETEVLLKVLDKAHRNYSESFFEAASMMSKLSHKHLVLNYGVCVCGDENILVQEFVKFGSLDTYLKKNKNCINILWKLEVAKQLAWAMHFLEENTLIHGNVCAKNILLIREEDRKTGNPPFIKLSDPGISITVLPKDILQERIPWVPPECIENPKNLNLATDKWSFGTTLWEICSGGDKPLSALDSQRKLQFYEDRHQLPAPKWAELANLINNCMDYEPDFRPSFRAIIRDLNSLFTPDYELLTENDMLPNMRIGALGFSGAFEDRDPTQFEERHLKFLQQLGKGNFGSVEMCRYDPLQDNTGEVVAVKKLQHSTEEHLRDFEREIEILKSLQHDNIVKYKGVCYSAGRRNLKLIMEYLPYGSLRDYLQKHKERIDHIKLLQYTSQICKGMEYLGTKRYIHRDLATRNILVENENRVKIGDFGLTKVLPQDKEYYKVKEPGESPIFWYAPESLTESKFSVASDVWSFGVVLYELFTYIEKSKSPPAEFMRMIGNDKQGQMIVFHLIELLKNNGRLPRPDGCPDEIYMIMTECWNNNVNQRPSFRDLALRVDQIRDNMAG
Briefly: Jak2 (PSTATS UT7) alpha screen assay: inhibition of EPO induced phosphorylation of STAT5 in UT7 cells. The format is cell-based. The note with it: calculated from tabulated EC50 data (Jak2 / Tyk2). On the procedure:
3. JAK2 (PSTATS UT7) ALPHA SCREEN ASSAY
Erythropoietin (EPO) is known to transduce its signal through EPO receptor via Jak2. Activity against Jak2 was therefore measured by determining inhibition of EPO induced phosphorylation of STATS in UT7 cells. […] Materials
Cell Type: UT7 cells engineered to express the erythropoietin (EPO) receptor; Culture Medium: Dulbecco's Modified Eagle Medium (DMEM) with 2 mM L-glutamine, 10 mM hydroxyethyl piperazineethanesulfonic acid (HEPES), 10% heat-inactivated fetal bovine serum (FBS) and Stock EPO (5000U in 250 uL, need 5U/mL, so add 250 μL to 1L of media); Assay Medium: 5% FBS ultra-low IgG and 1% Pen/Strep. Compounds were made-up in 100% dimethyl sulfoxide (DMSO).
Day One - Starve Cells: 4 Flasks for one 384 plate (spin down @1000 rpm for 10 minutes and add DMEM with no EPO).
as §1
i. Manual 8-point 1:3 dilution curve: 5 mM top concentration dispensed in row A of a
Corning 96-well polypropylene plate, columns 2-12. DMSO dispensed in position A01 for low and high controls. Compounds were serially diluted 1:3 by adding 10 μL stock to 20 μL DMSO down the plate.
ii. Media dilution of compounds: Serially diluted compounds were diluted 1:50 in assay medium by adding 4 μL compound to 196 μL assay medium in a Corning 96-well polypropylene plate.
384 Alpha Screen Plate Set up: Transferred 2.5 μL/well of compound solution from last dilution plate. Replicates were vertical, so that one column of the 96-well dilution plate goes into one column on the 384-well plate twice. Plated 1×10^5 starved cells/well in 5μL. Washed cells in 10 mL Hank's balanced salt solution (HBSS) after spinning down. Counted live cells. Multiplied by dilution factor and 10,000 (constant) to get the concentration of viable cells. Multiplied by volume of cells to get the total number of live cells. Divided by 20,000,000 cells/mL to get the volume needed. Subtracted the original volume to get the volume to be added to get the final concentration of cells. Mixed in reservoir if needed, ensuring that all cell clumps are broken up (if not broken up, they were removed from the suspension). Cells were plated at 5 μL/well in gray Alpha Screen 384-well plate. Spinned the plate to bring the contents to the bottom of the wells at 400 rpm for 2 minutes. Top final compound concentration: 25 μM. Sealed with adhesive and tapped gently. Incubated cells at 37° C. for 30 minutes.
c. EPO Stimulation (p STATS)
Once cells were in incubator, immediately prepared working stock of EPO (1 nM final assay concentration). EPO stock=2860 nM of sterile filtered liquid in sodium citrate buffer (1 liter of ddH2O containing 5.9 g of sodium citrate, 5.8 g of sodium chloride and 0.06 g of citric acid). Diluted 1:22.72 by adding 4.44 stock EPO to 95.6 pi assay media, then dilute again […] depending on how much volume is needed for the assay plates. Used assay medium to bring to volume. Added 2.5 μL EPO to each well. Spinned plate at 400 rpm briefly; tap the plate gently before covering with an adhesive seal. Cells were incubated at 37° C. for 20 minutes.
Added 2.5 μL of 5X Lysis buffer to each well. Spinned plate at 400 rpm briefly. Incubated at room temperature (on orbital shaker) for 10 minutes.
e. Protein (A) Acceptor Beads Preparation: (Light sensitive)
Phosphorylated Signal Transducer and Activator of Transcription 5 (pSTAT5) was quantified using the PerkinElmer SureFire pSTATS (Tyrosine 694/699) Assay. Calculated total volume needed (wells×15 μL×30%). Divided total volume by 5 to get volume of activation buffer. Subtracted volume of activation buffer from total volume and divide by 40 to get volume of acceptor beads (add last). Total volume - acceptor bead volume - activation buffer to get volume of reaction buffer. Added 15 μL to each well and covered with foil. Shaked on orbital shaker for 2 hours at 500 rpm.
as §2
Calculated total volume needed (wells×6μL×30%). […]

T1 sequence (P23458 whole entry): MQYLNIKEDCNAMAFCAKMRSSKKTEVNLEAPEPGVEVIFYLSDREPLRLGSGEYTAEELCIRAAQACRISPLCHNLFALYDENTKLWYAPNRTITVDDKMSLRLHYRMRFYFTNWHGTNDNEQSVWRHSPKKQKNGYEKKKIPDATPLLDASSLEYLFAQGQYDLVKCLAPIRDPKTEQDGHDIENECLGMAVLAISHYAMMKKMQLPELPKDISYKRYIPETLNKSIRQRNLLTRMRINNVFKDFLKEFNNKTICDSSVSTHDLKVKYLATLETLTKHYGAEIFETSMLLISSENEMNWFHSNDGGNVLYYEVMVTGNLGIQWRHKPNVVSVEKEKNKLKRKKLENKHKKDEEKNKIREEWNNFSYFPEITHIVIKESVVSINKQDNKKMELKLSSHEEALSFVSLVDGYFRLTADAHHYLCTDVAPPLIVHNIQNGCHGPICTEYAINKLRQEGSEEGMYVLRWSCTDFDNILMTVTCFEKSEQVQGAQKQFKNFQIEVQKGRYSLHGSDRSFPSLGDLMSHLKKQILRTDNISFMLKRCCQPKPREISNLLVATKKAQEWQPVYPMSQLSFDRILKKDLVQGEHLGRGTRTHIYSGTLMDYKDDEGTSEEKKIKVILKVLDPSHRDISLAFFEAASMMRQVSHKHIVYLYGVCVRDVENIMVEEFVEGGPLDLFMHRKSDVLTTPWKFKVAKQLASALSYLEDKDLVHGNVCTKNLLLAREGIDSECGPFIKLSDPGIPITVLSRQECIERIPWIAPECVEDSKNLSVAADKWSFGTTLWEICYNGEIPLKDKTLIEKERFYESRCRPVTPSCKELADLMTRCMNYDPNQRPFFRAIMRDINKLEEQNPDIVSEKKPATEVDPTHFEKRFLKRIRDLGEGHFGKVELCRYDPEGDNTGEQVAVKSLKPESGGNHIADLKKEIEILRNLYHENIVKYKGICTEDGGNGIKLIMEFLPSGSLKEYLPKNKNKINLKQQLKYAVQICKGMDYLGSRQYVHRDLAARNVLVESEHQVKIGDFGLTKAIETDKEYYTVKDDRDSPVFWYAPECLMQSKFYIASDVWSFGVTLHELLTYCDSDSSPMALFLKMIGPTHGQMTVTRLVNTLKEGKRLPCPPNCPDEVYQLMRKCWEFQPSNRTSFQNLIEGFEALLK

Consider `COc1cc(-c2cn(C)c3cnc(NC(N)=O)cc23)nc([C@]2(OC)CCOC2)c1` [Example 12.6, (R)-1-(3-(4-methoxy-6-(3-methoxytetrahydrofuran-3-yl)pyridin-2-yl)-1-methyl-1H-pyrrolo[2,3-c]pyridin-5-yl)urea], for which the “Tyk2 selectivity over Jak1” value in assay [1] was 385-fold. Also, the “Tyk2 selectivity over Jak2” value in assay [2] is recorded as >641-fold.
Taken in the same sequence, the figures for `CC[C@]1(c2cc(C#N)cc(-c3cn(C)c4cnc(NC(C)=O)cc34)n2)CCOC1` [Example 2.11, (R)-N-(3-(4-cyano-6-(3-ethyltetrahydrofuran-3-yl)pyridin-2-yl)-1-methyl-1H-pyrrolo[2,3-c]pyridin-5-yl)acetamide] were 72-fold and >240-fold.
Take `CO[C@@]1(c2cc(OCC[C@H](C)O)cc(-c3cn(C)c4cnc(NC(C)=O)cc34)n2)CCOC1` [Example 9, N-(3-(4-((S)-3-Hydroxybutoxy)-6-((R)-3-methoxytetrahydrofuran-3-yl)pyridin-2-yl)-1-methyl-1H-pyrrolo[2,3-c]pyridin-5-yl)acetamide]: the “Tyk2 selectivity over Jak1” value in assay [1] is recorded as 494-fold. In assay [2], the “Tyk2 selectivity over Jak2” value was >294-fold.
For `CO[C@@]1(c2cc(O[C@@H](C)CCO)cc(-c3cn(C)c4cnc(NC(C)=O)cc34)n2)CCOC1` [Example 14.4, N-(3-(4-(((S)-4-hydroxybutan-2-yl)oxy)-6-((R)-3-methoxytetrahydrofuran-3-yl)pyridin-2-yl)-1-methyl-1H-pyrrolo[2,3-c]pyridin-5-yl)acetamide], the “Tyk2 selectivity over Jak1” value in assay [1] is 470-fold. For the same compound, in assay [2], the “Tyk2 selectivity over Jak2” value was >187-fold.
With `CO[C@@]1(c2cc(C#N)cc(-c3cn([C@@H]4CC4(F)F)c4cnc(NC(C)=O)cc34)n2)CCOC1` [Example 2a.3, N-(3-(4-cyano-6-((R)-3-methoxytetrahydrofuran-3-yl)pyridin-2-yl)-1-((R)-2,2-difluorocyclopropyl)-1H-pyrrolo[2,3-c]pyridin-5-yl)acetamide], the “Tyk2 selectivity over Jak1” value in assay [1] is reported as 440-fold. In addition, the “Tyk2 selectivity over Jak2” value in assay [2] is >197-fold.
For `CO[C@@]1(c2cccc(-c3cn(C)c4cnc(NC(N)=O)cc34)n2)CCOC1` [Example 1, (R)-1-(3-(6-(3-Methoxytetrahydrofuran-3-yl)pyridin-2-yl)-1-methyl-1H-pyrrolo[2,3-c]pyridin-5-yl)urea], in assay [1], the “Tyk2 selectivity over Jak1” value is given as 92-fold. Moreover, the “Tyk2 selectivity over Jak2” value in assay [2] is recorded as >424-fold.
In the case of `CO[C@@]1(c2cc(C(F)F)cc(-c3cn([C@H]4C[C@H](C#N)C4)c4cnc(NC(C)=O)cc34)n2)CCOC1` [Example 17.2, N-(1-((trans)-3-cyanocyclobutyl)-3-(4-(difluoromethyl)-6-((R)-3-methoxytetrahydrofuran-3-yl)pyridin-2-yl)-1H-pyrrolo[2,3-c]pyridin-5-yl)acetamide], the “Tyk2 selectivity over Jak1” value in assay [1] is given as 243-fold. In addition, the “Tyk2 selectivity over Jak2” value in assay [2] is reported as >174-fold.
With `CO[C@@]1(c2cc(O[C@H]3C[C@H](O)C3)cc(-c3cn(C)c4cnc(NC(C)=O)cc34)n2)CCOC1` [Example 11, N-(3-(4-((trans)-3-Hydroxycyclobutoxy)-6-((R)-3-methoxytetrahydrofuran-3-yl)pyridin-2-yl)-1-methyl-1H-pyrrolo[2,3-c]pyridin-5-yl)acetamide], the “Tyk2 selectivity over Jak1” value in assay [1] was 442-fold. The “Tyk2 selectivity over Jak2” value in assay [2] is recorded as >481-fold.
The corresponding values for `CC[C@@]1(c2cccc(-c3cn(C)c4cnc(NC(N)=O)cc34)n2)CCOC1` [Example 3.2, (S)-1-(3-(6-(3-ethyltetrahydrofuran-3-yl)pyridin-2-yl)-1-methyl-1H-pyrrolo[2,3-c]pyridin-5-yl)urea] are 243-fold and >1786-fold.
Consider `COc1cc(-c2cn(C)c3cnc(NC(C)=O)cc23)nc([C@]2(CO)CCOC2)c1` [Example 22.6, (S)-N-(3-(6-(3-(hydroxymethyl)tetrahydrofuran-3-yl)-4-methoxypyridin-2-yl)-1-methyl-1H-pyrrolo[2,3-c]pyridin-5-yl)acetamide], for which the “Tyk2 selectivity over Jak1” value in assay [1] is recorded as 85-fold. In assay [2], the “Tyk2 selectivity over Jak2” value was >192-fold.
With `COCc1cc(-c2cn(C)c3cnc(NC(C)=O)cc23)nc([C@@]2(CO)CCOC2)c1` [Example 22a, (R)-N-(3-(6-(3-(hydroxymethyl)tetrahydrofuran-3-yl)-4-(methoxymethyl)pyridin-2-yl)-1-methyl-1H-pyrrolo[2,3-c]pyridin-5-yl)acetamide], the “Tyk2 selectivity over Jak2” value in assay [2] is >21-fold.
